Among the data in patent US20220305115A1 (JANSSEN SCIENCES IRELAND UNLIMITED COMPANY, priority 2019, published 2022) are CC50 and EC50 values, retold here.

Where only a bound is given, the exact number is not on record here.

What all share (assay type): cell-based
Series [1] in a line: Off-target cytotoxicity, galactose-adapted PC-3 cells (Cell Titer Glo, 5 days). The conditions noted are these: human, galactose-adapted PC-3, five days incubation, intracellular ATP, read-out: CC50 GALFC3 CTG 50. An excerpt: (§1) To assess potential off-target toxicity of certain compounds disclosed herein, the in vitro cytotoxicity of those compounds was profiled using a panel of 5 cell lines with various tissue origins. Compound cytotoxicity was examined in hepatoma-derived Huh-7 and HepG2 cells, prostate carcinoma-derived PC-3 cells, lymphoma derived MT-4 cells and a normal diploid lung cell line MRC-5. HepG2 and PC-3 cells used were adapted to grow in glucose-free galactose-containing medium. […] Cell viability was determined by measuring intracellular ATP levels following five days of continuous incubation with test compounds.
(§2) The MT-4 cell line (HTLV-1 transformed, human T lymphoblastoid cells) was obtained from the NIH AIDS Reagent program (Bathesda, Md.). The human hepatoblastoma cell line HepG2, human prostate carcinoma cell line PC-3, and normal fetal lung derived MRC-5 cells were obtained from the American Type Culture Collection (ATCC, Manassas, Va.).
(§3) Huh-7 cells were maintained in Dulbecco's Modified Eagle Medium (DMEM) supplemented with 10% fetal bovine serum (FBS, Hyclone, Logan, Utah), 1% non-essential amino acids (Gibco, Carlsbad, Calif.). PC-3 and HepG2 cells were adapted to grow in 0.2% galactose-containing, glucose-free Dulbecco's Modified Eagle Medium (DMEM) supplemented with 10% fetal bovine serum (FBS, Hyclone, Logan, Utah), 1% non-essential amino acids (Gibco, Carlsbad, Calif.), 1% Pyruvate (Cellgro), 1% Glutamax (Invitrogen, Carlsbad, Calif.). Galactose-adapted cells were maintained in the same culture medium. MRC-5 cells were maintained in Eagle's Minimum Essential Medium (EMEM) supplemented with 10% fetal bovine serum (FBS, Hyclone, Logan, Utah). […] All cell culture media were also supplemented with 100 Units/mL penicillin, 100 μg/mL streptomycin (Gibco).
Using a Biotek uFlow Workstation (Biotek, Winooski, Vt.), 1500 HepG2, 1500 PC-3, 500 Huh7 or 1500 MRC-5 cells in 90 μL of culture media were dispensed into each well of black polystyrene tissue culture-treated 384-well plates. Plated cells were incubated for 24 hours in an incubator at 37° C., 5% CO2 and 90% humidity. Compound serial dilutions were performed in 100% DMSO in 384-well polypropylene (high recovery) plates on a Biomek FX Workstation (Beckman Coulter, Fullerton, Calif.). After 3-fold serial dilutions, 0.4 μL of compounds were transferred into 384-well plates containing cells using a Velocity 11 system equipped with a Bravo 384-well pipettor. The DMSO concentration in the final assay plates was 0.44% (v/v). Cells were incubated with compound(s) for five days at 37° C.
(§4) At the end of the incubation period the cytotoxicity assay was performed as follows: Media from 384-well cell culture plates were aspirated with a Biotek EL405 plate-washer (Biotek) and cells were washed with 100 μL PBS once. Twenty microliters of Cell Titer Glo (Promega, Madison, Wis.) was added to each well of the plates with a Biotek uFlow liquid dispenser. Plates were incubated for 15 minutes at room temperature before luminescence was measured with a Perkin Elmer Envision Plate Reader (Perkin Elmer, Waltham, Mass.).

Series [2] in a line: Off-target cytotoxicity, galactose-adapted HepG2 cells (Cell Titer Glo, 5 days). The conditions noted are these: human, galactose-adapted HepG2, five days incubation, intracellular ATP, read-out: CC50 GALHEPG2 CTG 50.
Description: (§5) To assess potential off-target toxicity of certain compounds disclosed herein, the in vitro cytotoxicity of those compounds was profiled using a panel of 5 cell lines with various tissue origins. Compound cytotoxicity was examined in hepatoma-derived Huh-7 and HepG2 cells, prostate carcinoma-derived PC-3 cells, lymphoma derived MT-4 cells and a normal diploid lung cell line MRC-5. HepG2 and PC-3 cells used were adapted to grow in glucose-free galactose-containing medium. These cells have a relatively higher sensitivity to inhibitors of mitochondrial oxidative phosphorylation compared to the same cells maintained in standard glucose-containing culture medium (Marroquin et al., Toxicol. Sci. 2007; 97 (2):539-47). Cell viability was determined by measuring intracellular ATP levels following five days of continuous incubation with test compounds.
(§6) The human hepatoma Huh-7 cell line was obtained from ReBLikon GmbH (Mainz, Germany) {20879}. The MT-4 cell line (HTLV-1 transformed, human T lymphoblastoid cells) was obtained from the NIH AIDS Reagent program (Bathesda, Md.). The human hepatoblastoma cell line HepG2, human prostate carcinoma cell line PC-3, and normal fetal lung derived MRC-5 cells were obtained from the American Type Culture Collection (ATCC, Manassas, Va.).
(§7) Huh-7 cells were maintained in Dulbecco's Modified Eagle Medium (DMEM) supplemented with 10% fetal bovine serum (FBS, Hyclone, Logan, Utah), 1% non-essential amino acids (Gibco, Carlsbad, Calif.). PC-3 and HepG2 cells were adapted to grow in 0.2% galactose-containing, glucose-free Dulbecco's Modified Eagle Medium (DMEM) supplemented with 10% fetal bovine serum (FBS, Hyclone, Logan, Utah), 1% non-essential amino acids (Gibco, Carlsbad, Calif.), 1% Pyruvate (Cellgro), 1% Glutamax (Invitrogen, Carlsbad, Calif.). Galactose-adapted cells were maintained in the same culture medium. MRC-5 cells were maintained in Eagle's Minimum Essential Medium (EMEM) supplemented with 10% fetal bovine serum (FBS, Hyclone, Logan, Utah). MT-4 cells were maintained in RPMI-1640 supplemented with 10% fetal bovine serum (FBS, Hyclone, Logan, Utah). All cell culture media were also supplemented with 100 Units/mL penicillin, 100 μg/mL streptomycin (Gibco).
(§8) Using a Biotek uFlow Workstation (Biotek, Winooski, Vt.), 1500 HepG2, 1500 PC-3, 500 Huh7 or 1500 MRC-5 cells in 90 μL of culture media were dispensed into each well of black polystyrene tissue culture-treated 384-well plates. Plated cells were incubated for 24 hours in an incubator at 37° C., 5% CO2 and 90% humidity. Compound serial dilutions were performed in 100% DMSO in 384-well polypropylene (high recovery) plates on a Biomek FX Workstation (Beckman Coulter, Fullerton, Calif.). After 3-fold serial dilutions, 0.4 μL of compounds were transferred into 384-well plates containing cells using a Velocity 11 system equipped with a Bravo 384-well pipettor. The DMSO concentration in the final assay plates was 0.44% (v/v). Cells were incubated with compound(s) for five days at 37° C. Puromycin (44 μM final concentration) and DMSO (0.44%, v/v) were used as a positive and negative controls, respectively
as §4
(§9) CC50 values were defined as the compound concentration that caused a 50% decrease in luminescence signal, and were calculated by non-linear regression using Pipeline Pilot software by applying a four parameter fit equation (Accelrys, San Diego, Calif.). Individual CC50 values are listed as μM concentrations.

The next series deals with Huh-7 cells. Nature of the series: Off-target cytotoxicity, Huh-7 cells (Cell Titer Glo, 5 days). The settings on record: Huh-7, five days incubation, intracellular ATP; read-out: CC50 HEH7 CTG 50.
Description: as §5, §6, §7, §8, §4, §9

For the next series, the system named is MRC-5 cells. Nature of the series: Off-target cytotoxicity, MRC-5 cells (Cell Titer Glo, 5 days). The conditions noted are these: MRC-5, five days incubation, intracellular ATP; read-out: CC50 MHCS CTG 50.
Description: as §5, §6, §7, §8, §4, §9

Series [3] can be described thus: Off-target cytotoxicity, MT-4 cells (Cell Titer Glo, 5 days). The settings on record: human, MT-4, five days incubation, intracellular ATP, read-out: CC50 (MT4).
Description: as §1, §2, §3
For the MT-4 cytotoxicity assay, 0.4 μL of serially diluted compounds were added to 40 μl of cell maintenance media in 384-well black, solid bottom plate using a Biomek FX workstation (Beckman Coulter). Two thousand cells in 35 μL were added to each well using a Biotek uFlow Workstation (Biotek). […] Assay plates were incubated for five days at 37° C. in an incubator set at 5% CO2 and 90% humidity. After five days, 22 μL of Cell Titer Glo reagent (Promega) was added to the assay plates with a Biotek uFlow Workstation. Plates were subsequently placed on a Perkin Elmer Envision Plate Reader for five minutes before the luminescence signal was read.
(In general: ATP-based viability assays read luminescence as a measure of living cells.)

The target of a further series is T1, human TLR7 (Homo sapiens, UniProt Q9NYK1).
T1 construct: host or cells: HEK-Blue human TLR7 cells (HEK293-derived reporter line)
T1 sequence (Q9NYK1 27-1049): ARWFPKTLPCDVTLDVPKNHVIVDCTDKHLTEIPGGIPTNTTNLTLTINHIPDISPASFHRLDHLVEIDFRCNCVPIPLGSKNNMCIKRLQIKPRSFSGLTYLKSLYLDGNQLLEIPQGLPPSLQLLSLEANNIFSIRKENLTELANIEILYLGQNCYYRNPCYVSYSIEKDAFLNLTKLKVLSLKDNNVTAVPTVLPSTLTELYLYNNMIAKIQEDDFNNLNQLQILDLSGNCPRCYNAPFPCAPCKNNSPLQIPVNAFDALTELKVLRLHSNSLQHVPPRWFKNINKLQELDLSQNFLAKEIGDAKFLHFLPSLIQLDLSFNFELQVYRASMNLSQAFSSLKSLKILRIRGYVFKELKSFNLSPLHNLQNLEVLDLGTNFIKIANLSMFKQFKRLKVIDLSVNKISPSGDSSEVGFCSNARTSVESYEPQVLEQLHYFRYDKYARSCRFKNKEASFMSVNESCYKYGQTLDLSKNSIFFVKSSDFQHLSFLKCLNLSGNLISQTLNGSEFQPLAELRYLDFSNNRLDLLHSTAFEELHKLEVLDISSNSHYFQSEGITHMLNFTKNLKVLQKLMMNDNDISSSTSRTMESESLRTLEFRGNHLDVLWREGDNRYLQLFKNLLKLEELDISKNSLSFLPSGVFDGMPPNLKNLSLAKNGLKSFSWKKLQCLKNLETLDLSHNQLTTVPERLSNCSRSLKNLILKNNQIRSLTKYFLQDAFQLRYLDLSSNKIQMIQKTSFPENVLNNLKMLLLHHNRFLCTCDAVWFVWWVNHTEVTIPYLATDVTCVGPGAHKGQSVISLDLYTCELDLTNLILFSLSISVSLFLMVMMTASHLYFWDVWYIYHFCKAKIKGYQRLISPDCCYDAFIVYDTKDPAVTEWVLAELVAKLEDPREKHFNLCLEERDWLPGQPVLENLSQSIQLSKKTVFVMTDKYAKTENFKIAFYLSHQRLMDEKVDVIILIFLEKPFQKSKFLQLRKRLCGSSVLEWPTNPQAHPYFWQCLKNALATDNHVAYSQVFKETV
The series can be described thus: HEK-Blue human TLR7 cell SEAP reporter assay (NF-κB activation). The settings on record: HEK-Blue human TLR7 cells, stimulation for 20 hours, Quanti Blue read at 640 nm. An excerpt: For TLR8 and TLR7 activity testing, HEK-Blue human TLR8 or TLR7 cells (Invivogen, San Diego, Calif., USA) are used, respectively. These cells are designed for studying the stimulation of human TLR8 or TLR7 by monitoring the activation of NF-κB. A SEAP (secreted embryonic alkaline phosphatase) reporter gene is placed under the control of the IFN-b minimal promoter fused to five NF-κB and AP-1-binding sites. Therefore the reporter expression is regulated by the NF-κB promoter upon stimulation of human TLR8 or TLR7 for 20 hours. The cell culture supernatant SEAP reporter activity was determined using Quanti Blue kit (Invivogen, San Diego, Ca, USA) at a wavelength of 640 nm, a detection medium that turns purple/blue in the presence of alkaline phosphatase. EC50 values were determined using Activity Base analysis (ID Business Solution, Limited).

With `CCCC[C@@](C)(Nc1nc(N)nc2cccnc12)C(C)O` (single isomer, unassigned) [Compound 97], the results for the CC50 at 5 days in series [1], in series [2] and in series [3] were 27.5 µM, 33 µM and 30 µM, respectively. Besides, the CC50 in the series on Huh-7 cells and with MRC-5 cells was 44.4 µM in each case.

On to `CCCC[C@H](CNC(C)=O)Nc1nc(N)nc2cccnc12` [Compound 51, (R)—N-(2-((2-aminopyrido[3,2-d]pyrimidin-4-yl)amino)hexyl)acetamide], for which the CC50 at 5 days in series [1] is 37.2 µM; in series [2], at least 44.4 µM; in series [3] it was 57.1 µM. For the same compound, the CC50 with Huh-7 cells and in the series on MRC-5 cells was 44.4 µM each time.

On to `CCCC[C@](C)(CNC(C)=O)Nc1nc(N)nc2cccnc12` [Compound 61], for which the cytotoxic concentration (CC50) at 5 days in series [1] is 44.4 µM; in series [2], at least 44.4 µM; in series [3] it was 212 µM. In addition, the CC50 in the series on Huh-7 cells and with MRC-5 cells was 44.4 µM throughout.

Take `CCCN(CCC)C(=O)C1=Cc2ccc(C3=NCc4ccccc4N3)cc2N=C(N)C1` [Example 1, 2-Amino-8-(1,4-dihydroquinazolin-2-yl)-N,N-dipropyl-3H-1-benzazepine-4-carboxamide]: on human TLR7, the EC50 was over 100 µM.

Compound `CCCN(CCC)C(=O)C1=Cc2ccc(C3=NCc4ccncc4N3)cc2N=C(N)C1` [Example 2, 2-Amino-8-(1,4-dihydropyrido[3,4-d]pyrimidin-2-yl)-N,N-dipropyl-3H-1-benzazepine-4-carboxamide] gave an EC50 at human TLR7 of over 100 µM.

In turn, `CCCN(CC1CC1)C(=O)C1=Cc2ccc(C3=NCc4ccccc4N3)cc2N=C(N)C1` [Example 3, 2-Amino-N-(cyclopropylmethyl)-8-(1,4-dihydroquinazolin-2-yl)-N-propyl-3H-1-benzazepine-4-carboxamide] yielded a concentration for a half-maximal effect (EC50) on human TLR7 of over 100 µM.

The compound `CCCN(CC(C)C)C(=O)C1=Cc2ccc(C3=NCc4ccccc4N3)cc2N=C(N)C1` [Example 4, 2-Amino-8-(1,4-dihydroquinazolin-2-yl)-N-isobutyl-N-propyl-3H-1-benzazepine-4-carboxamide] registered an EC50 on human TLR7 of over 100 µM.

Turning to `CCCN(CCC)C(=O)C1=Cc2ccc(C3=NCc4c(Cl)cccc4N3)cc2N=C(N)C1` [Example 5, 2-Amino-8-(5-chloro-1,4-dihydroquinazolin-2-yl)-N,N-dipropyl-3H-1-benzazepine-4-carboxamide], at human TLR7, the concentration giving a half-maximal response (EC50) was over 100 µM.

As to `CCCN(CCC)C(=O)C1=Cc2ccc(C3=NCc4ccc(Cl)cc4N3)cc2N=C(N)C1` [Example 6, 2-Amino-8-(7-chloro-1,4-dihydroquinazolin-2-yl)-N,N-dipropyl-3H-1-benzazepine-4-carboxamide], at human TLR7, the EC50 is over 100 µM.

For orientation: CC50 means the concentration that lowers cell viability or growth by half. What is called EC50 is the concentration at which the effect is half-maximal.
